Values quoted from earlier work as cited in patent US11198731B2 (Exelixis, Inc., priority 2017, dated 2021).
Where two headings read alike, the source gives them in different places.

How the values were obtained:
[1] = tested on: platinum-pretreated NSCLC; conditions: cited from earlier work; for OS hazard ratio: vs docetaxel
[2] = tested on: NSCLC without EGFR genetic alterations; conditions: cited from earlier work
[3] = tested on: advanced RCC after prior VEGFR-TKI; conditions: cited from earlier work
[4] = tested on: advanced CRPC with bone metastases; conditions: cited from earlier work
[5] = tested on: previously-untreated advanced RCC of intermediate- or poor-risk; conditions: cited from earlier work
[6] = tested on: locally advanced or metastatic UC; conditions: cited from earlier work
[7] = tested on: cisplatin-ineligible UC; conditions: cited from earlier work
[8] = tested on: locally advanced or metastatic UC; conditions: cited from earlier work; remark: listed apart in the source
[9] = tested on: advanced NSCLC; conditions: cited from earlier work
[10] = tested on: advanced RCC of clear cell or non-clear cell histology; conditions: cited from earlier work
[11] = PD-L1 positive population (2 1% PD-L1 expression)
[12] = subjects with ≥5% PD-L1 expression

Compound: CC(=O)O[C@@]12CO[C@@H]1C[C@H](O)[C@@]1(C)C(=O)[C@H](O)C3=C(C)[C@@H](OC(=O)[C@H](O)[C@@H](NC(=O)OC(C)(C)C)c4ccccc4)C[C@@](O)([C@@H](OC(=O)c4ccccc4)[C@H]21)C3(C)C [docetaxel]
- Median OS ([1]; ITT population): 9.6 months
- ORR ([1]; ITT population): 13%
- Median OS [1, 11]: 10.3 months
- Treatment-related Grade 3 or 4 AEs [1]: 43%
- Median DOR ([1]; in vivo): 6.2 months
- Subjects who discontinued treatment due to AE ([1]; in vivo): 19%

Compound: C#Cc1cccc(Nc2ncnc3cc(OCCOC)c(OCCOC)cc23)c1 [erlotinib, reference compound]
- Progression as best response ([2]; % of subjects): 66%
- Estimated median OS ([2]; in vivo): 5.1 months
- ORR ([2]; in vivo): 3%
- PFS ([2]; second or third line treatment): 1.8 months

Compound: CO[C@H]1C[C@@H]2CC[C@@H](C)[C@@](O)(O2)C(=O)C(=O)N2CCCC[C@H]2C(=O)O[C@H]([C@H](C)C[C@@H]2CC[C@@H](OCCO)[C@H](OC)C2)CC(=O)[C@H](C)/C=C(\C)[C@@H](O)[C@@H](OC)C(=O)[C@H](C)C[C@H](C)/C=C/C=C/C=C/1C [everolimus]
- ORR per IRC ([3]; ITT population): 3%
- Median duration of PFS (Kaplan-Meier) ([3]; Primary Endpoint Intent-to-Treat population): 3.8 months
- Median duration of OS (Kaplan-Meier) ([3]; in vivo): 16.5 months
- Treatment discontinuations due to AEs ([3]; incidence in each arm): 10%

Compound: C[C@]12C=CC(=O)C=C1CC[C@@H]1[C@@H]2C(=O)C[C@@]2(C)[C@H]1CC[C@]2(O)C(=O)CO [prednisone, reference compound]
- Proportion of subjects with a bone scan response (BSR) per IRC ([4]; at Week 12): 3%
- Median PFS per investigator ([4]; exploratory endpoint): 2.8 months
- Median duration of BSR ([4]; in vivo): 1.8 months
- Median duration of OS (Kaplan-Meier) ([4]; in vivo): 9.8 months

Compound: CCN(CC)CCNC(=O)c1c(C)[nH]c(/C=C2\C(=O)Nc3ccc(F)cc32)c1C [sunitinib, reference compound]
- Discontinued study treatment due to an AE ([5]; 16 subjects in each arm): 21%
- Adverse events of ≥Grade 3 regardless of causality ([5]; % of subjects): 65%
- ≥Grade 3 AE: PPE ([5]; in vivo): 4%
- ≥Grade 3 AE: diarrhea ([5]; in vivo): 11%
- ≥Grade 3 AE: fatigue ([5]; in vivo): 17%
- ≥Grade 3 AE: hematological events ([5]; in vivo): 21%
- ≥Grade 3 AE: hypertension ([5]; in vivo): 21%

Compound: atezolizumab: humanized immunoglobulin (Ig) G1 monoclonal antibody that targets programmed death receptor 1 ligand (PD-L1)
- Median OS ([1]; ITT population): 13.8 months
- ORR ([1]; ITT population): 14%
- OS hazard ratio ([1]; ITT population): 0.73
- Median OS [1, 11]: 15.7 months
- OS hazard ratio ([1]; PD-L1 positive population): 0.74
- AE of any grade: asthenia ([1]; in vivo): 8%
- AE of any grade: decreased appetite ([1]; in vivo): 9%
- AE of any grade: fatigue ([1]; in vivo): 14%
- AE of any grade: nausea ([1]; in vivo): 9%
- Immune-related AE: colitis ([1]; in vivo): two
- Immune-related AE: hepatitis ([1]; in vivo): two
- Immune-related AE: pneumonitis ([1]; in vivo): four
- Median DOR ([1]; in vivo): 16.3 months
- Subjects who discontinued treatment due to AE ([1]; in vivo): 8%
- Treatment-related Grade 3 or 4 AEs ([1]; in vivo): 15%
- Duration of response (DOR) ([6]; overall population): 21.7 months
- Overall ORR ([6]; overall population): 13%
- OS hazard ratio ([6]; overall population, vs chemotherapy): 0.85
- ORR [6, 12]: 23.0%
- Median OS ([7]; all subjects irrespective of PD-L1 expression level): 15.9 months
- Overall ORR by IRF ([7]; all subjects): 23%
- ORR by IRF ([7]; subjects with <5% PD-L1): 21%
- ORR by IRF [7, 12]: 28%
- Adverse events leading to treatment discontinuation ([8]; in vivo): 3.2%
- Treatment-emergent anti-therapeutic antibodies detected ([8]; in vivo): 41.5%
- irAE: aspartate aminotransferase (AST) increased ([8]; in vivo): 2%
- irAE: pneumonitis ([8]; in vivo): 2%
- Median OS ([8]; overall population): 7.9 months
- Median PFS ([8]; overall population): 2.1 months
- Overall ORR by IRF ([8]; overall population): 14.8%
- ORR by IRF ([8]; subjects with <5% PD-L1 expression): 9.5%
- ORR by IRF ([8]; subjects with ? 5% PD-L1 expression): 26.0%
- Median OS [8, 12]: 11.9 months
- Median OS ([9]; PD-L1 high group): 26.9 months
- Median PFS ([9]; PD-L1 high group): 5.4 months
- Median duration of response ([9]; PD-L1 high group): ~10 months
- AE leading to discontinuation: Grade 3 or 4 pneumonitis ([9]; in vivo): 1%
- AE leading to discontinuation: any grade pneumonia ([9]; in vivo): 1%
- Adverse events leading to treatment discontinuation ([9]; in vivo): 7%
- Treatment-related AEs of Grade 3 or 4 ([9]; in vivo): 9%
- Treatment-related Grade 5 event ([9]; in vivo): no treatment-related Grade 5 event
- OS ([9]; unselected untreated NSCLC subjects): 23.5 months
- Median OS ([10]; clear cell RCC): 28.9 months
- Overall median PFS ([10]; clear cell RCC): 5.6 months
- Grade 4 or 5 treatment-related AEs ([10]; in vivo): no Grade 4 or 5 treatment-related AEs
- Treatment-related Grade 3 events ([10]; in vivo): 17%
